The record followed here is ChEMBL document CHEMBL4392844 (Bioorg Med Chem, 2019).

SMILES strings stand for the structures. Calls of active or inactive are those of the source. The rule behind the calls is not given here.

The test system of test [1] is A549. As to the kind of experiment: Cytotoxicity against human A549 cells assessed as reduction in cell proliferation measured after 72 hrs by MTT assay. It counts as functional, cell-based. The settings on record: A549, 72 h. On the technique in general: Formazan colour is commonly taken as a measure of viable cells.
In test [2] the test system is HT-29. As to the kind of experiment: Cytotoxicity against human HT-29 cells assessed as reduction in cell proliferation measured after 72 hrs by MTT assay. The class given is functional, cell-based. Particulars: HT-29, 72 h.
The subject of test [3] is HT-29. The test can be described thus: Antiproliferative activity against human HT-29 cells assessed as reduction in cell proliferation at 0.37 ug/ml after 72 hrs by phase contrast microscopy. The class given is functional, cell-based.
For test [4], the system named is HT-29. As to the kind of experiment: Antiproliferative activity against human HT-29 cells assessed as increase in dead cell population at 10 ug/ml measured after 66 hrs by IncuCyte live-cell imaging analysis. The class given is functional, cell-based.
In test [5] the test system is HT-29. The test can be described thus: Antimigratory activity against human HT-29 cells assessed as reduction in cell migration at 3.33 ug/ml measured every hour for 72 hrs by IncuCyte real-time cell imaging analysis. The class given is functional, cell-based.
For test [6], the system named is HT-29. The test can be described thus: Antimigratory activity against human HT-29 cells assessed as reduction in cell migration at 3.33 ug/ml measured every hour for 48 hrs by IncuCyte real-time cell imaging analysis. It counts as functional, cell-based.
Test [7] deals with HT-29. The test can be described thus: Antiproliferative activity against human HT-29 cells assessed as reduction in cell proliferation by IncuCyte live-cell imaging analysis. The class given is functional, cell-based.
In test [8] the test system is HT-29. As to the kind of experiment: Antiproliferative activity against human HT-29 cells assessed as reduction in cell proliferation by phase contrast microscopy. It counts as functional, cell-based.
For test [9], the system named is HT-29. As to the kind of experiment: Antiproliferative activity against human HT-29 cells assessed as reduction in cell proliferation at 10 ug/ml after 72 hrs by phase contrast microscopy. It counts as functional, cell-based.
In test [10] the test system is HT-29. The test can be described thus: Antiproliferative activity against human HT-29 cells assessed as increase in dead cell population by IncuCyte live-cell imaging analysis. The class given is functional, cell-based.
For test [11], the system named is HT-29. As to the kind of experiment: Antiproliferative activity against human HT-29 cells assessed as increase in dead cell population at 10 ug/ml measured after 14 hrs by IncuCyte live-cell imaging analysis. The class given is functional, cell-based.
Test [12] has as its system HT-29. The test can be described thus: Ratio of test compound effect to cabozantinib effect for antiproliferative activity against human HT-29 cells assessed as increase in dead cell population measured after 14 hrs by IncuCyte live-cell imaging analysis. The class given is functional.
The subject of test [13] is HT-29. The test can be described thus: Antiproliferative activity against human HT-29 cells assessed as increase in dead cell population at 1.11 ug/ml measured after 66 hrs by IncuCyte live-cell imaging analysis. It counts as functional, cell-based.
Test [14] concerns HT-29. As to the kind of experiment: Induction of apoptosis in human HT-29 cells measured after 72 hrs by Annexin V-FITC/propidium iodide staining based FACS analysis. It counts as functional, cell-based. (In general: A flow cytometer gives signals particle by particle.)
In test [15] the test system is HT-29. As to the kind of experiment: Induction of apoptosis in human HT-29 cells assessed as early apoptotic cells at 5 ug/ml measured after 24 hrs by Annexin V-FITC/propidium iodide staining based FACS analysis (reference value: 4.9%). The class given is functional.
The test system of test [16] is HT-29. As to the kind of experiment: Induction of apoptosis in human HT-29 cells assessed as early apoptotic cells at 0.3 ug/ml measured after 24 hrs by Annexin V-FITC/propidium iodide staining based FACS analysis (reference value: 4.9%). It counts as functional.
The subject of test [17] is HT-29. As to the kind of experiment: Induction of apoptosis in human HT-29 cells assessed as early apoptotic cells at 1 ug/ml measured after 24 hrs by Annexin V-FITC/propidium iodide staining based FACS analysis (reference value: 4.9%). The class given is functional.
The subject of test [18] is HT-29. As to the kind of experiment: Induction of apoptosis in human HT-29 cells assessed as early apoptotic cells at 3 ug/ml measured after 24 hrs by Annexin V-FITC/propidium iodide staining based FACS analysis (reference value: 4.9%). It counts as functional.
For test [19], the target named is T1, Receptor-type tyrosine-protein kinase FLT3 (Homo sapiens, UniProt P36888).
T1 sequence (P36888 whole entry): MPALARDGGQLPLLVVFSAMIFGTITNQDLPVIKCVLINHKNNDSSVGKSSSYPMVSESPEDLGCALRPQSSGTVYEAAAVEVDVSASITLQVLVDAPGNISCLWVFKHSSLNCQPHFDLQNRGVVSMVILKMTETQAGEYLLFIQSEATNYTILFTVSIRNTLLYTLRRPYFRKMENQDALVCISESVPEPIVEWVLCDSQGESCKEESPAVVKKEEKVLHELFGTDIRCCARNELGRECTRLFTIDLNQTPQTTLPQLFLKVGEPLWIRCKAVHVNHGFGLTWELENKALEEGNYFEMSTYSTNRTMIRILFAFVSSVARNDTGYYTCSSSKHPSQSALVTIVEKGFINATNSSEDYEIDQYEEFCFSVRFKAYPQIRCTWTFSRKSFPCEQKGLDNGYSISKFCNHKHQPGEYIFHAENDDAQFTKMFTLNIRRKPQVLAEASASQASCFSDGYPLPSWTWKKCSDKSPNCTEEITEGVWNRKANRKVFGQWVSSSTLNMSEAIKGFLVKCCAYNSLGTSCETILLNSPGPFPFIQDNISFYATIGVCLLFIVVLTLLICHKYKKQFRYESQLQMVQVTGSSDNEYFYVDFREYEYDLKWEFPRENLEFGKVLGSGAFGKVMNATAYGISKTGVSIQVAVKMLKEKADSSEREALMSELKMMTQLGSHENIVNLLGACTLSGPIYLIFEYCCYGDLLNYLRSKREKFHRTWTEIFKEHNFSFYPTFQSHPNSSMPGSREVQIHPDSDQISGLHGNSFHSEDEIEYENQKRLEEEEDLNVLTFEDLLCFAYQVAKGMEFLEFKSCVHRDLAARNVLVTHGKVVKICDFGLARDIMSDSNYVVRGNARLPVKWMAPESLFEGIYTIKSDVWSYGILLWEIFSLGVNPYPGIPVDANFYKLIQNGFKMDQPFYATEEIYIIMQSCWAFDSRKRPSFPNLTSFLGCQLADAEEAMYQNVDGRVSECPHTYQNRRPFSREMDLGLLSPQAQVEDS
The test can be described thus: Inhibition of FLT3 (unknown origin) using FAM-labelled peptide as substrate measured after 10 mins by mobility shift assay.

The target in test [20] is Vascular endothelial growth factor receptor 2 (Homo sapiens, UniProt P35968). The test can be described thus: Inhibition of VEGFR2 (unknown origin) using FAM-labelled peptide as substrate measured after 10 mins by mobility shift assay.
Vascular endothelial growth factor receptor 2, sequence (P35968 whole entry): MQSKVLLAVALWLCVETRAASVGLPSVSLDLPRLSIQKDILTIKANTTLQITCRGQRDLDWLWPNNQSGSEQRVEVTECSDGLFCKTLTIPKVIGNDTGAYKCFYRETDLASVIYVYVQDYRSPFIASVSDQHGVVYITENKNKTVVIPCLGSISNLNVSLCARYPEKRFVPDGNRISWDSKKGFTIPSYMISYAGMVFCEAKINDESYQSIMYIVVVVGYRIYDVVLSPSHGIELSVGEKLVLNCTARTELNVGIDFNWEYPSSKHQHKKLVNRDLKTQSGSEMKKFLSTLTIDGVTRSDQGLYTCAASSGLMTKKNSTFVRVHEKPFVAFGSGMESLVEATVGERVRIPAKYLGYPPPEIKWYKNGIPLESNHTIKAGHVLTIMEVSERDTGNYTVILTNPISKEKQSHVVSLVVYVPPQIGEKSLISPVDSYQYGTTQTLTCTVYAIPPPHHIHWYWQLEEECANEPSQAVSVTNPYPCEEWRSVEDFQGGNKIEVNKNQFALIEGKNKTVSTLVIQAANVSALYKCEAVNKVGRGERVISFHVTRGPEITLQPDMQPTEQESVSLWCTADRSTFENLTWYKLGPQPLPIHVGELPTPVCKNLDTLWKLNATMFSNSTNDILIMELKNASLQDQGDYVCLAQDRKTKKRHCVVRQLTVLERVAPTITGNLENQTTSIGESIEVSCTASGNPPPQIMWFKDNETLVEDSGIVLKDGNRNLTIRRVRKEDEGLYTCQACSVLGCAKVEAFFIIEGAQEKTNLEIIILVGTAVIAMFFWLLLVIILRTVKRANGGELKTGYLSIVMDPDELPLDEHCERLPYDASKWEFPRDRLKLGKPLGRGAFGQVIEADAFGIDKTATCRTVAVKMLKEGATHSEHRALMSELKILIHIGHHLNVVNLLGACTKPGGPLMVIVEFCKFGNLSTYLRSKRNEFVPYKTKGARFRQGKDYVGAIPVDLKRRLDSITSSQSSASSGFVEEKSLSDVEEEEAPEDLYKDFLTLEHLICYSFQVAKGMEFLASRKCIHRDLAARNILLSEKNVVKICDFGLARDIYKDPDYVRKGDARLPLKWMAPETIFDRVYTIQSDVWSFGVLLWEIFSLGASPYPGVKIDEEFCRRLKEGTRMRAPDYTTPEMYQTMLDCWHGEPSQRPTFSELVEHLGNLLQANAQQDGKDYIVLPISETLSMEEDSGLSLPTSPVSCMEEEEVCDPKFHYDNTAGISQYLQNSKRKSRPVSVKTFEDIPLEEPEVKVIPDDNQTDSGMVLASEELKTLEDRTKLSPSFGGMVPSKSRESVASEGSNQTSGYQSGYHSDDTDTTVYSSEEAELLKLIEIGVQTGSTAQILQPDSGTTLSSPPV
The target of test [21] is Insulin-like growth factor 1 receptor (Homo sapiens, UniProt P08069). The test can be described thus: Inhibition of IGF1R (unknown origin) using FAM-labelled peptide as substrate measured after 10 mins by mobility shift assay.
Insulin-like growth factor 1 receptor, sequence (P08069 31-736 limits assumed): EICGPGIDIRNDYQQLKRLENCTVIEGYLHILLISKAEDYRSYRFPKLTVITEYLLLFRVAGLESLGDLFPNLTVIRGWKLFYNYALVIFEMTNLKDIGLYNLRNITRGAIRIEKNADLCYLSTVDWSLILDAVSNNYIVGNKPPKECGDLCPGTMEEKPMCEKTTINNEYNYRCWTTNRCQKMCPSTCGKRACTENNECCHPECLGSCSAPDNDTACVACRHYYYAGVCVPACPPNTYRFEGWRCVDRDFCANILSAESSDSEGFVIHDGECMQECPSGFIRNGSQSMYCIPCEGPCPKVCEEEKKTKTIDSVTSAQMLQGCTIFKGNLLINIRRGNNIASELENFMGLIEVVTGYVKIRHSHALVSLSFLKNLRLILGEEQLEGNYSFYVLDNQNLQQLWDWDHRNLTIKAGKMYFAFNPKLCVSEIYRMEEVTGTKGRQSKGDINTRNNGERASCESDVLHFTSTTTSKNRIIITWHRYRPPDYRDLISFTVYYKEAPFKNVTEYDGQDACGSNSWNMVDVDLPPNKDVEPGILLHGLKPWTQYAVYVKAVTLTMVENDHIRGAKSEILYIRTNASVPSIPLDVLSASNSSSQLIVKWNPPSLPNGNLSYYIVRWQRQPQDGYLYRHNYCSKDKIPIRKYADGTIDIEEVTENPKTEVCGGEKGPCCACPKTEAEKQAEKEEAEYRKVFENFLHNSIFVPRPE
Insulin-like growth factor 1 receptor, sequence (P08069 741-1367 limits assumed): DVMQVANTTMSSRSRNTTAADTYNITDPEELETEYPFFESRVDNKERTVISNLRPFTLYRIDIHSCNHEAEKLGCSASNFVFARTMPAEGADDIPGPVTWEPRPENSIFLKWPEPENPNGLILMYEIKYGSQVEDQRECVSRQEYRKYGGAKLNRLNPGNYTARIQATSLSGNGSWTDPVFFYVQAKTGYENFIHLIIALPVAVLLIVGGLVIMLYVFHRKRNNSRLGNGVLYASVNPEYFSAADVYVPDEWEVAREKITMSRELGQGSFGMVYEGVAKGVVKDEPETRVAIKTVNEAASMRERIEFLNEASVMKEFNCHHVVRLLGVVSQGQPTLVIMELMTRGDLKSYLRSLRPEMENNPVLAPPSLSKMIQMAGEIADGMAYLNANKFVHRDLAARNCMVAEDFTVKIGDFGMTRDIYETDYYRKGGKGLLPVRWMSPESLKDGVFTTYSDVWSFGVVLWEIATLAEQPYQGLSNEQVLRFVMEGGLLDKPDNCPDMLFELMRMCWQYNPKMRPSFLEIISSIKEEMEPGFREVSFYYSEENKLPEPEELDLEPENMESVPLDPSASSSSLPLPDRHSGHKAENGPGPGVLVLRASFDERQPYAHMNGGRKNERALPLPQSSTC
In test [22] the target is Mast/stem cell growth factor receptor Kit (Homo sapiens, UniProt P10721). The test can be described thus: Inhibition of c-KIT (unknown origin) using FAM-labelled peptide as substrate measured after 10 mins by mobility shift assay.
Mast/stem cell growth factor receptor Kit, sequence (P10721 whole entry): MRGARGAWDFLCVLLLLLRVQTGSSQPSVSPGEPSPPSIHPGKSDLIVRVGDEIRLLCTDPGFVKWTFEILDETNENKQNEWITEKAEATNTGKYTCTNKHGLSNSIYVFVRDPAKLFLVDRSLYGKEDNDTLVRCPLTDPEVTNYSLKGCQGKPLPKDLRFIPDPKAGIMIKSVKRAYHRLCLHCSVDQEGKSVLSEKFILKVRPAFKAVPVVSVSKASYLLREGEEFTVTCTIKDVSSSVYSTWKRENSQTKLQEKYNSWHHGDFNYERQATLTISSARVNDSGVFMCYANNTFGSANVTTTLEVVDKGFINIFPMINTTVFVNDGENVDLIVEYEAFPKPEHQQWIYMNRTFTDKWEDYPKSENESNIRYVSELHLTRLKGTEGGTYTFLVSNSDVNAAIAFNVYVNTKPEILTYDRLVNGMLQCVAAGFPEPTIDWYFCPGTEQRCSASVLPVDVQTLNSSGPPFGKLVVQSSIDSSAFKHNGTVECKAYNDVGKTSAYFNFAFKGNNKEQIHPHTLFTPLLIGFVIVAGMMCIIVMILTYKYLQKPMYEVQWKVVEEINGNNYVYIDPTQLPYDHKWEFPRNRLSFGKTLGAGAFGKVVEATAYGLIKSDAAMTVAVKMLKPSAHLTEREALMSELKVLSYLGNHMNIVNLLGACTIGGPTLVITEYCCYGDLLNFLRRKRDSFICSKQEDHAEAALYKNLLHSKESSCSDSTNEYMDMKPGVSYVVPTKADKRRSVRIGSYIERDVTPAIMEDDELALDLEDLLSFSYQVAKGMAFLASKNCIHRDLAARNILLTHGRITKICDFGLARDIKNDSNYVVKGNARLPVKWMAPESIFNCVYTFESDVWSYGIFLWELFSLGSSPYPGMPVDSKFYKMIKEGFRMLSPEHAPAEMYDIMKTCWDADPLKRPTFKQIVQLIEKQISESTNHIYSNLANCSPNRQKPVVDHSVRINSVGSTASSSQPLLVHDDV
In test [23] the target is Proto-oncogene tyrosine-protein kinase Src (Homo sapiens, UniProt P12931). As to the kind of experiment: Inhibition of c-SRC (unknown origin) using FAM-labelled peptide as substrate measured after 10 mins by mobility shift assay.
Proto-oncogene tyrosine-protein kinase Src, sequence (P12931 2-536 limits assumed): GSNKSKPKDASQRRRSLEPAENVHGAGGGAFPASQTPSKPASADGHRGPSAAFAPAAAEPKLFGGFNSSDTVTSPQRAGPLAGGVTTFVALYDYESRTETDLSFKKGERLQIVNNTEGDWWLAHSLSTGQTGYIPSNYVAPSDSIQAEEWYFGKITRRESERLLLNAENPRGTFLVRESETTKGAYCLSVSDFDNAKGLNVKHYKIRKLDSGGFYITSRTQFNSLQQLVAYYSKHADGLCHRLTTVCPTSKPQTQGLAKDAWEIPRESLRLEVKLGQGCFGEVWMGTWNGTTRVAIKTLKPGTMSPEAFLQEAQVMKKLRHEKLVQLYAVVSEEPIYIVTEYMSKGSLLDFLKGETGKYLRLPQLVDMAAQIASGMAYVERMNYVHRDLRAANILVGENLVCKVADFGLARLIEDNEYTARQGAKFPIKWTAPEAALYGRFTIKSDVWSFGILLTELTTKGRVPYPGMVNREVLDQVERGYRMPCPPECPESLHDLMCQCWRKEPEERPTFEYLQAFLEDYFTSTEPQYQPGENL
The target of test [24] is Epidermal growth factor receptor (Homo sapiens, UniProt P00533). The test can be described thus: Inhibition of EGFR (unknown origin) using FAM-labelled peptide as substrate measured after 10 mins by mobility shift assay.

As to `CCN1CCN(CCCOc2cc3nccc(Oc4ccc(C5SCC(=O)N5NC(=O)Nc5ccc(F)cc5F)cc4F)c3cc2OC)CC1` (stereo unspecified), the IC50 in test [1] worked out at 1 µM; in test [2] it was 0.32 µM.

For the compound `COc1cc2c(Oc3ccc(C4SCC(=O)N4NC(=O)Nc4ccc(Cl)cc4)cc3)ccnc2cc1OCCCN1CCOCC1` (stereo unspecified), the results for the IC50 in test [1] and in test [2] were 6.7 µM and 6.6 µM, respectively.

As to `COc1cc2c(Oc3ccc(C4SCC(=O)N4NC(=O)Nc4ccccc4Cl)cc3)ccnc2cc1OCCCN1CCOCC1` (stereo unspecified), the IC50 in [1] was 8.5 µM; in test [2], 6.5 µM.

As to `COc1cc2c(Oc3ccc(C4SCC(=O)N4NC(=O)Nc4ccccc4F)cc3)ccnc2cc1OCCCN1CCOCC1` (stereo unspecified), the IC50 in test [1] worked out at 7 µM.

As for `COc1cc2c(Oc3ccc(C4SCC(=O)N4NC(=O)Nc4ccc(F)cc4F)cc3Cl)ccnc2cc1OCCCN1CCOCC1` (stereo unspecified), the IC50 in [1] is 6.7 µM; in test [2], 2.4 µM.

On to `COc1cc2c(Oc3ccc(C4SCC(=O)N4NC(=O)Nc4ccc(F)cc4F)cc3F)ccnc2cc1OCCCN1CCOCC1` (stereo unspecified), for which the results for the IC50 in [1] and in test [2] were 2.1 µM and 0.86 µM, respectively.

With `COc1cc2c(Oc3ccc(C4SCC(=O)N4NC(=O)Nc4ccc(F)cc4F)c(F)c3)ccnc2cc1OCCCN1CCOCC1` (stereo unspecified), the IC50 in test [1] amounted to 4.6 µM; in [2] it was 1.3 µM.

With `COc1cc2c(Oc3ccc(C4SCC(=O)N4NC(=O)Nc4cccc(Cl)c4)cc3)ccnc2cc1OCCCN1CCOCC1` (stereo unspecified), the values for the IC50 in [1] and in test [2] were 8.9 µM and 7.7 µM, respectively.

Turning to `COc1cc2nccc(Oc3ccc(NC(=O)C4(C(=O)Nc5ccc(F)cc5)CC4)cc3)c2cc1OC` [CABOZANTINIB], in [1], the IC50 was found to be 8.5 µM. The outcome in test [3], in [4], in [5] and in [6] was Active.

For the compound `COc1cc2c(Oc3ccc(C4SCC(=O)N4NC(=O)Nc4ccc(F)cc4F)cc3F)ccnc2cc1OCCCN1CCCN(C)CC1` (stereo unspecified), the IC50 was 0.71 µM in test [1] and 0.18 µM in test [2].

`COc1cc2c(Oc3ccc(C4SCC(=O)N4NC(=O)Nc4ccc(F)c(F)c4F)cc3)ccnc2cc1OCCCN1CCOCC1` (stereo unspecified): the values for the IC50 in test [1] and in test [2] were 5.5 µM and 4.4 µM, respectively.

As to `COc1cc2c(Oc3ccc(C4SCC(=O)N4NC(=O)Nc4ccc(F)cc4)cc3)ccnc2cc1OCCCN1CCOCC1` (stereo unspecified), the IC50 in test [1] was determined as 4.9 µM; in [2], 4.8 µM.

`COc1cc2c(Oc3ccc(C4SCC(=O)N4NC(=O)Nc4ccc(F)cc4F)c(Cl)c3)ccnc2cc1OCCCN1CCOCC1` (stereo unspecified): the IC50 in test [1] came out at 6.1 µM; in [2], 2.8 µM.

On to `COc1cc2c(Oc3ccc(C4SCC(=O)N4NC(=O)Nc4ccc(F)cc4F)cc3)ccnc2cc1OCCCN1CCOCC1` (stereo unspecified), for which the results for the IC50 in [1] and in [2] were 6 µM and 2.3 µM, respectively.

Consider `COc1cc2c(Oc3ccc(C4SCC(=O)N4NC(=O)Nc4ccc(F)cc4F)cc3F)ccnc2cc1OCCCN1CCN(C)CC1` (stereo unspecified), for which the IC50 in [1] came to 0.65 µM; in test [2], 0.11 µM; in [19] it was 0.0086 µM; in test [20] it was 0.0187 µM; in [21], 6.66 µM; in test [22] it was 0.352 µM. The IC50 in test [23] was determined as 0.383 µM; in test [24] it was 0.4 µM. Moreover, the Activity entry in [7] was “Dose-dependent effect”; in [8], “Dose-dependent effect”; in test [10], “Dose-dependent effect”; in test [14], “Dose-dependent effect”; in [15], 65.5%; in [16], 56.6%. Moreover, the Activity in [17] came to 62%; in test [18], 69.4%. The outcome in test [9], in test [11], in test [13], in [5] and in test [6] was Active. Besides, the Ratio in test [12] is listed as more than 10.

In the case of `COc1cc2c(Oc3ccc(C4SCC(=O)N4NC(=O)Nc4ccccc4)cc3)ccnc2cc1OCCCN1CCOCC1` (stereo unspecified), the figures for the IC50 in [1] and in test [2] were 8.7 µM and 5.2 µM, respectively.

Regarding `COc1cc2c(Oc3ccc(C4SCC(=O)N4NC(=O)Nc4cc(F)cc(F)c4)cc3)ccnc2cc1OCCCN1CCOCC1` (stereo unspecified), the 50% inhibitory concentration (IC50) in test [1] came out at 6.1 µM; in test [2], 4.9 µM.

What is called IC50 is the point on the concentration scale where inhibition reaches its midpoint.
